Assay [1] has as its target T1, human NMU-2R (Homo sapiens, UniProt Q9GZQ4).
T1 construct: expressed in transfected cells
Description: NMU-2R reporter gene (luciferase) assay in HEK-293/NMU-2R/3MCS/Luci cells. It is filed as cell-based. The following applies: for activation of NMU-2R, expression of reporter gene luciferase: in the presence of forskolin 5 μmol/L. As for the experimental part:
Establishment of stable cell line: HEK-293 cells were maintained in DMEM with 10% FBS (Gibco) and 1% non-essential amino acid at 37° C. […] Twenty-four hours after transfection, cell culture medium was replaced with fresh medium containing G418 at final concentration of 800 mg/L. Stable cell line was generated using limited dilution based on the luciferase activity in the presence of NmU and forskolin (5 μmol/L). The stable cell line was named HEK-293/NMU-2R/3MCS/Luci cells. Luciferase assay and screening for NMU-2R agonists: The luciferase activity was measured according to the protocol from Promega. Briefly, 100 μL of HEK-293/NMU-2R/3MCS/Luci cells at 4×10^4 cells/mL were added into each well of white 96 -well plate (flat, clear bottom, Costar). The cells were maintained in DMEM containing 10% FBS (Gibco) and 1% non-essential amino acid, and incubated at 37° C., 5% CO2 overnight. […] Finally, 110 μL of luciferase substrate Bright GloTM (Promega) was added into each well. Luciferase activity was measured using […] (Molecular Device).
On the technique in general: A reporter such as luciferase makes a cellular process visible.

A further assay has as its system other GPCRs. Description: Specificity assay in more than twenty other GPCR stable cell lines. It is filed as cell-based. As for the experimental part: Several stable cell lines were generated to examine the specificity of the compounds. First, the activity of the compounds in cell line expressing the reporter gene alone were tested. Since the reporter gene cell line was not transfected with NMU-2R expression vector, compounds that can activate the reporter gene expression in this cell line were not NMU-2R agonists. In addition, the compounds in cell lines expressing other GPCRs were tested. More than twenty different GPCR stable cell lines were generated for the specificity assay.

The target of another assay is T2, NMU-1R (Homo sapiens, UniProt Q9HB89).
T2 sequence (Q9HB89 1-426): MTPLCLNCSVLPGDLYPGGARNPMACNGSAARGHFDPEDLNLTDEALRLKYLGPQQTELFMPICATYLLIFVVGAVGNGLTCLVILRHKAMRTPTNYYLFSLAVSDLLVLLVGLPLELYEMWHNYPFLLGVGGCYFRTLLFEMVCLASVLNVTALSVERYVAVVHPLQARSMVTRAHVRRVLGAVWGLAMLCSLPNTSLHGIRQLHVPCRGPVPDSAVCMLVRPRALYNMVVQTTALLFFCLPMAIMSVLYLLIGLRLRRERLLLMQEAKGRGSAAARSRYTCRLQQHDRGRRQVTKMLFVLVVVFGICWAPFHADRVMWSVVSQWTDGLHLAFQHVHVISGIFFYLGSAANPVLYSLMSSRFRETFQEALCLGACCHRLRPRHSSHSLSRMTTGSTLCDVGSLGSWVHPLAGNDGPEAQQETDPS
The assay can be described thus: Activity for NMU-1R. The assay is classed as cell-based.

The target in assay [2] is T1, human NMU-2R. The following applies: literature refs 5-7, 15-20; cited from earlier work.

Entries after “also recorded” stand apart in the source; their conditions may differ. Where no end group is shown, it is not given here.

We go through four compounds from US20060063702A1, “Neuromedin U 2 receptor agonists and uses thereof” (priority 2004, published 2006).

T1 sequence (Q9GZQ4 whole entry): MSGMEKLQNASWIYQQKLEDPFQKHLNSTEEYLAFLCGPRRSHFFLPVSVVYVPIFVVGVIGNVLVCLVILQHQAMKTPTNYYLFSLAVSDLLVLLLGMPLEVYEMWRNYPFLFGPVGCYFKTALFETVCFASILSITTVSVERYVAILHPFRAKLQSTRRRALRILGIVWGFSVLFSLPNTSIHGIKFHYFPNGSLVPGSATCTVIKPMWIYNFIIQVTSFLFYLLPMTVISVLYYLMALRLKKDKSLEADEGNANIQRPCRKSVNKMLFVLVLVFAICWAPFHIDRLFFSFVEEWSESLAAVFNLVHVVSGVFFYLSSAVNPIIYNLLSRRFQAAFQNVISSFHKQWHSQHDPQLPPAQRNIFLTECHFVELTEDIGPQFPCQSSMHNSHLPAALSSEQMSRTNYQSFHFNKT

On to `COc1ccc([C@@H]2CC(=O)c3c(O)cc(O[C@@H]4O[C@H](CO[C@@H]5O[C@@H](C)[C@H](O)[C@@H](O)[C@H]5O)[C@@H](O)[C@H](O)[C@H]4O)cc3O2)cc1O` [Hesperidin], for which, on human NMU-2R [1], the “activation of NMU-2R, expression of reporter gene luciferase” value is given as “potential NMU-2R agonists”.
Same read-out and setting: to `COc1ccc(-c2oc3c(CC=C(C)C)c(O[C@@H]4O[C@H](CO)[C@@H](O)[C@H](O)[C@H]4O)cc(O)c3c(=O)c2O[C@@H]2O[C@@H](C)[C@H](O)[C@@H](O)[C@H]2O)cc1` [Icariin] belongs “potential NMU-2R agonists”.
With `C[C@@H]1O[C@@H](OC[C@H]2O[C@@H](Oc3c(-c4ccc(O)c(O)c4)oc4cc(O)cc(O)c4c3=O)[C@H](O)[C@@H](O)[C@@H]2O)[C@H](O)[C@H](O)[C@H]1O` [Rutin], the “effect on other GPCRs” value with other GPCRs was “no activity”. Also, the “activity for NMU-1R” value at NMU-1R was “no activity”.
“Neuromedin U (FRVDEEFQSPFASQSRGYFLFRPRN; ends and bridges not checked; UniProt P48645 142-166, looked up) [NmU, peptide hormone, natural ligand for NMU-2R]”: the “induction of reporter gene expression” value with human NMU-2R [1] (NmU alone, without forskolin) is reported as “only slightly induced”. Besides, the “activation of NMU-2R, expression of reporter gene luciferase” value with human NMU-2R [1] is given as “best response; also recorded: significantly increased”. The “potency of receptor activation” value with human NMU-2R [2] was “nanomolar range”.
